# Read-outs that look alike come from different tables or passages of the source.
# Key:
# [1] = system: PGE2-induced fluid accumulation; test: PGE2-induced enteropooling assay (fluid accumulation) in rats; assay type: in vivo, Sprague-Dawley rats; conditions: for inhibition at 2 mg/kg: Rattus norvegicus, read-out: Inhibition of secretion
# Experimental: This example illustrates the ability of BJW and its active components, magnolol, honokiol and imperatorin, to inhibit PGE2-induced fluid accumulation in rats. Sprague-Dawley rats of either sex, in groups of 8 animals, weighing between 220 and 250 g were used. A modified PGE2-induced enteropooling assay (Robert et al., Prostaglandins 11(5):809-28 (1976)) was used. The test drugs or vehicle were administrated intergastrically to rats 60 min before the administration of PGE2 (100 μg/kg, i.g.). BJW was administered (i.g. 1.6 g/kg, 2× of recommended human dosage) once daily for two days before treatment with PGE2.
# [2] = system: Cl−-secreting human colonic cell line, T84; test: Inhibition of cAMP-activated Cl− secretion across T84 cell monolayers; assay type: cell-based; conditions: forskolin (10 μM), read-out: IC50, inhibition of forskolin-induced Cl− secretion
# [3] = rats, dose 2 mg/kg intergastrically 60 min before PGE2 (100 μg/kg, i.g.)
Structure (SMILES),"inhibition at 2 mg/kg [1, 3]","Fluid accumulation ratio (FA) [1, 3]",IC50 [2],inhibition at 2 mg/kg [1]
"C=CCc1ccc(O)c(-c2ccc(O)c(CC=C)c2)c1 [Honokiol, honokiol]",56%,7.06 ± 1.18 fluid g/g intestine,4 to 7 µg/mL,
"CC(C)=CCOc1c2occc2cc2ccc(=O)oc12 [Imperatorin, imperatorin]",39%,8.87 ± 1.93 fluid g/g intestine,4 to 7 µg/mL,
"CN(C)C(=O)C(CCN1CCC(O)(c2ccc(Cl)cc2)CC1)(c1ccccc1)c1ccccc1 [Loperamide, loperamide, reference compound]",,5.09 ± 1.40 fluid g/g intestine,,75%
"C=CCc1ccc(O)c(-c2cc(CC=C)ccc2O)c1 [Magnolol, magnolol]",,3.28 ± 0.32 fluid g/g intestine,,92%
CC(C)=CCOc1c2ccoc2cc2oc(=O)ccc12 [isoimperatorin],,,4 to 7 µg/mL,

# — patent publication US6923992B2, “Active compounds of Bao-Ji-Wan for anti-diarrhea and relieving gastrointestinal symptoms” (The Chinese University of Hong Kong, priority 2001, dated 2005)
